Test system: young wheat plants under salt stress
Assay: Salt stress experiment
Assay type: in vivo, Triticum a. cv. Hereward
Details: 100 nM, 75 mM NaCl
Protocol: A plastic container was filled with 45 g of perlite and 200 mL of Hoagland's solution (control) or with the addition of ASES to a final concentration of 100 nM. Sterilized seeds of Triticum a. cv. Hereward (6 g) were sown on the surface. Both treatments were done in two repetitions. The plants were left to grow in optimal conditions (22°C, 16/8, light/dark, 130 μM m^−2 s^−1, humidity 60%) for 7 days. During this period, most of the water evaporated and the containers were adjusted to the same weight by the addition of fresh distilled water. After this, all the containers contained 50 g (mL) of water. Then 100 mM NaCl solution was added in the final volume of 150 mL. Final concentration of the salt was 75 mM. The plants were then left to grow, analyzed visually and photographed at certain time-points.

COCCNC(=O)Nc1cnns1 [ASES, 1-(2-methoxy-ethyl)-3-1,2,3-thiadiazol-5-yl-urea]
delay of senescence of the individual leaves compared to the untreated control: 5 to 6 days | % of plants with dry and/or completely yellow at least one quarter of the first leaf (twenty days after planting, control 81%): 8%

— paper PMC6142817, “New Urea Derivatives Are Effective Anti-senescence Compounds Acting Most Likely via a Cytokinin-Independent Mechanism” (Frontiers in Plant Science, 2018)
